Measurements reported in US20120258993A1, “NON-NATURAL MACROCYCLIC AMIDE HDAC6 INHIBITOR COMPOUNDS AND THEIR USES AS THERAPEUTIC AGENTS” (SIGMA-TAU INDUSTRIE FARMACEUTICHE RIUNITE S.P.A., priority 2009, published 2012).

Assays:
Experiment in all cases: HDAC enzyme inhibition, fluorogenic peptide substrate
Format in all cases: biochemical
Settings in all cases: purified human enzyme, fluorogenic peptide substrate 10 μM
HDAC9 = HDAC9 (Homo sapiens, UniProt Q9UKV0)
Experimental: (§1) The substrate was incubated with the eleven single HDAC purified enzymes. Upon its deacetylation, the fluorophore was released given rise to fluorescence emission. The latter was detected by a fluorimeter, and the IC50 values of the compounds were determined by analyzing dose-response inhibition curves.

HDAC7 = target: T1, HDAC7 (Homo sapiens, UniProt Q8WUI4)
T1 sequence (Q8WUI4 1-952): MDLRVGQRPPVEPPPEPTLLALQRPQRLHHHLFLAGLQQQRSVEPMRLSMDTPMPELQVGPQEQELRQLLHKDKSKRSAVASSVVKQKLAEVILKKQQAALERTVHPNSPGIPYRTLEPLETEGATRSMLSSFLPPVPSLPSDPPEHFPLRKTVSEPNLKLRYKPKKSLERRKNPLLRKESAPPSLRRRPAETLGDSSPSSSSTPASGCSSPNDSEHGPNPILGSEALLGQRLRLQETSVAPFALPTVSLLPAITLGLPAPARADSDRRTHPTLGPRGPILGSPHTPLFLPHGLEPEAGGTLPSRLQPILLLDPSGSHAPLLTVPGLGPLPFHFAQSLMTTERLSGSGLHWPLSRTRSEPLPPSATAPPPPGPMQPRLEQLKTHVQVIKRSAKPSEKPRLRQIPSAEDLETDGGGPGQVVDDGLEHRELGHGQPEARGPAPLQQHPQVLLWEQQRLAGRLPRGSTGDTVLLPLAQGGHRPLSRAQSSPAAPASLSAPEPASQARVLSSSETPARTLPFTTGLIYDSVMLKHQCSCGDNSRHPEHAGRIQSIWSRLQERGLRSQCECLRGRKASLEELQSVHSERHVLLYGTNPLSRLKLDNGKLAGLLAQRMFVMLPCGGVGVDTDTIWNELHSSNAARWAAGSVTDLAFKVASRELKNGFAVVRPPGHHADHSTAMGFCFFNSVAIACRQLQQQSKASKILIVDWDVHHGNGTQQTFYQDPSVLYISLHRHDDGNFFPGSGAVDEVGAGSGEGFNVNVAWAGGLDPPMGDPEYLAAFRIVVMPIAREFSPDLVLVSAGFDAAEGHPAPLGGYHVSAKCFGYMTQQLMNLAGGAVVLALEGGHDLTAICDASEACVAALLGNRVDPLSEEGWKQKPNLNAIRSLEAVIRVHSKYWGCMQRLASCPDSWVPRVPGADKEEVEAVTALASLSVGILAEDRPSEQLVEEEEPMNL
Experimental: as §1

HDAC11 = target: T2, HDAC11 (Homo sapiens, UniProt Q96DB2)
T2 sequence (Q96DB2 1-347): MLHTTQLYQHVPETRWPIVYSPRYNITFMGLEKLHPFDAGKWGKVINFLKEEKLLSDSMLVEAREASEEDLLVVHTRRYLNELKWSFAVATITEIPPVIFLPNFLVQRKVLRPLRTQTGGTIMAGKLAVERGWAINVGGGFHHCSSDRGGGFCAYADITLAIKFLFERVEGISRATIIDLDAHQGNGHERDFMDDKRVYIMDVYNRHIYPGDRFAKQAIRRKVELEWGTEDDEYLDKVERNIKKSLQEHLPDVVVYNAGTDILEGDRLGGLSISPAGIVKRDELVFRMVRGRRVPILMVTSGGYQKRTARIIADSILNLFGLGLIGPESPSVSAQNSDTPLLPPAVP
Experimental: as §1, with “curves. TSA and SAHA were used as reference compounds.” for “curves.”

HDAC6 = target: T3, HDAC6 (Homo sapiens, UniProt Q9UBN7)
T3 sequence (Q9UBN7 1-1215): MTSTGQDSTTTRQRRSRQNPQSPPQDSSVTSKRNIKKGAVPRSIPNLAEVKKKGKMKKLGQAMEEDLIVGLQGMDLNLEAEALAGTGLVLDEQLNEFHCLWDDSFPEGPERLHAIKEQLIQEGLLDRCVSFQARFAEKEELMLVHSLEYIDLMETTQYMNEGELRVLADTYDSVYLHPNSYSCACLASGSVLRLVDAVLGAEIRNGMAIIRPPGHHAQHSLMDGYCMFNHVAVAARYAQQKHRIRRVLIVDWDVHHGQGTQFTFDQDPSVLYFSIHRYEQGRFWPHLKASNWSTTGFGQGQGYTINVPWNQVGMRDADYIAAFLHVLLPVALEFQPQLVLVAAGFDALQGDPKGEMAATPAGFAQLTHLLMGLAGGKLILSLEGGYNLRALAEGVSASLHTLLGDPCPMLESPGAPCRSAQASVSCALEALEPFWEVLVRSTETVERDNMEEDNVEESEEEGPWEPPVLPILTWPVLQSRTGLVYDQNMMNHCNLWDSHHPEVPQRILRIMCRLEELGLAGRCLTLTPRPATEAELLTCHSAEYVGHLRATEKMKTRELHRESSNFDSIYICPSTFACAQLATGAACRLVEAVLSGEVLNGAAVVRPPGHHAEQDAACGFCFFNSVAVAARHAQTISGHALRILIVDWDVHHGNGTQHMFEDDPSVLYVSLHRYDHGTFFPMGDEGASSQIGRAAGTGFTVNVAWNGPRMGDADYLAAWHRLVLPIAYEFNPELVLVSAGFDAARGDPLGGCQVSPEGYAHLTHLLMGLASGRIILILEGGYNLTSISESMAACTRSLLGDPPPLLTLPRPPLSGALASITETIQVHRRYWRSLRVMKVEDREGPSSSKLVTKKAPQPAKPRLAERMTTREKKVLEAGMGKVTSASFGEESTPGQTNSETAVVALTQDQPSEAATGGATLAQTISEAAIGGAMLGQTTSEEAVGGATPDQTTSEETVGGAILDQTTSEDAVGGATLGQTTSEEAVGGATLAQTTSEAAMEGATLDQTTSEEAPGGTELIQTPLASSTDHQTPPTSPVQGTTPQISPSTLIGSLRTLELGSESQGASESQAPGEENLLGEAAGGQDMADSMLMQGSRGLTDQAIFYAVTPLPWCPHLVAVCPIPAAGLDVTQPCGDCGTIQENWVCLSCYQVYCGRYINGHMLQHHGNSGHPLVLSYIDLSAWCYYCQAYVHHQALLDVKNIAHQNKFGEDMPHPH
Experimental: as §1, with “curves. TSA and SAHA were used as reference compounds.” for “curves.”

HDAC8 = target: T4, HDAC8 (Homo sapiens, UniProt Q9BY41)
T4 sequence (Q9BY41 1-377): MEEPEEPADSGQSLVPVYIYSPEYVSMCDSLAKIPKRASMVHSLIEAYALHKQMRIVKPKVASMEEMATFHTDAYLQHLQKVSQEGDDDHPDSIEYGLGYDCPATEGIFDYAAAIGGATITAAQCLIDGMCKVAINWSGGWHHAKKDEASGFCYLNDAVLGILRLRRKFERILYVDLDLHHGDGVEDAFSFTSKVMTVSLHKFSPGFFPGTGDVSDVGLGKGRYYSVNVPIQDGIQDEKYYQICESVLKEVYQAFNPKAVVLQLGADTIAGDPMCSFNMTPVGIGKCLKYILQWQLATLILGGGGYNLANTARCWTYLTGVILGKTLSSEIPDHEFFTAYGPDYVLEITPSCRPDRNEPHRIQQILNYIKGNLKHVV
Experimental: as §1, with “curves. TSA and SAHA were used as reference compounds.” for “curves.”

HDAC2 = HDAC2 (Homo sapiens, UniProt Q92769)
Sequence of HDAC2 (Q92769 whole entry): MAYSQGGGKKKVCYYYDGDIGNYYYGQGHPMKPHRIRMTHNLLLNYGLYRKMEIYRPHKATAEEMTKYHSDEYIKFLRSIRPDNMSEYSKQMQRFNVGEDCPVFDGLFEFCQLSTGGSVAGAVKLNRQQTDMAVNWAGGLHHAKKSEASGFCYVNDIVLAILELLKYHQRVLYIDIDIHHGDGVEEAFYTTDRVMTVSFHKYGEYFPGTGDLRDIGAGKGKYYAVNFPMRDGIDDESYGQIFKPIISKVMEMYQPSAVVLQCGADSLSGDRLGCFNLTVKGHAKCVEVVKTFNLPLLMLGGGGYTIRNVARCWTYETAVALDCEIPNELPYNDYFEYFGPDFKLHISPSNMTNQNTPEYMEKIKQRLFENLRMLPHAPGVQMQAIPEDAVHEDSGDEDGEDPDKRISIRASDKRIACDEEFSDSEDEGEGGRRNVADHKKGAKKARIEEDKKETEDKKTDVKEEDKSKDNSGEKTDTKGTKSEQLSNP
Experimental: as §1, with “curves. TSA and SAHA were used as reference compounds.” for “curves.”

HDAC3 = HDAC3 (Homo sapiens, UniProt O15379)
Sequence of HDAC3 (O15379 whole entry): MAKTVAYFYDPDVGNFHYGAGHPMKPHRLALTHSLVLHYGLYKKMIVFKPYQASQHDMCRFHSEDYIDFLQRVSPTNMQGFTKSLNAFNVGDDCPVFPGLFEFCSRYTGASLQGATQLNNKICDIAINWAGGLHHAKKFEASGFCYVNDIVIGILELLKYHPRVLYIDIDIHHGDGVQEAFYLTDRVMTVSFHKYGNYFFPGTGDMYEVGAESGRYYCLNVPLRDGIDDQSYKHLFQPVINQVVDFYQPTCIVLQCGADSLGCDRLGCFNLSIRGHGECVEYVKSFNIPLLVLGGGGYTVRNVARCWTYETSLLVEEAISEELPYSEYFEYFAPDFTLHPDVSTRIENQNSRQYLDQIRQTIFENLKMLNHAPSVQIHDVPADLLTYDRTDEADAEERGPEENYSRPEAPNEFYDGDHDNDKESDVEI
Sequence of HDAC3 (Q9Y618 395-489 partner limits assumed): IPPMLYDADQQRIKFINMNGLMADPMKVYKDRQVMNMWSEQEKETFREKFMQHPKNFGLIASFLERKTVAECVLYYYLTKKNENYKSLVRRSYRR
Experimental: as §1, with “curves. TSA and SAHA were used as reference compounds.” for “curves.”

HDAC10 = target: T5, HDAC10 (Homo sapiens, UniProt Q969S8)
T5 sequence (Q969S8 1-669): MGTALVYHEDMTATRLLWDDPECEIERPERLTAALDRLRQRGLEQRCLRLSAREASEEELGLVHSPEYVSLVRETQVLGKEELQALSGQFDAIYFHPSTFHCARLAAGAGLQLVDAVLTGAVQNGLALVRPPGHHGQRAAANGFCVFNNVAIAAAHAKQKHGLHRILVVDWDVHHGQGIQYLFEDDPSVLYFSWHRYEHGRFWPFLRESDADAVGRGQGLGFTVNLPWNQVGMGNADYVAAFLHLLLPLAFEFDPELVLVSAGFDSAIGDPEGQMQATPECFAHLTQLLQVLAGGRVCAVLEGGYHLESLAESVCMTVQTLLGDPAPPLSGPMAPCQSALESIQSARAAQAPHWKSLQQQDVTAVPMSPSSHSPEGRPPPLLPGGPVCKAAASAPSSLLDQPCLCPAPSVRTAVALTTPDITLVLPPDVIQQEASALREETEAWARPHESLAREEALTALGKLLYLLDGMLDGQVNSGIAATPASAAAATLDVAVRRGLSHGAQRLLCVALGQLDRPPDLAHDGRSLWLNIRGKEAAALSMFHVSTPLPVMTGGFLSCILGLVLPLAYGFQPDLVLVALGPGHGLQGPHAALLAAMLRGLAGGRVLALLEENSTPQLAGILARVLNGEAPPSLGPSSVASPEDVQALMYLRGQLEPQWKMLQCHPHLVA
Experimental: as §1, with “curves. TSA and SAHA were used as reference compounds.” for “curves.”

HDAC5 = HDAC5 (Homo sapiens, UniProt Q9UQL6)
Sequence of HDAC5 (Q9UQL6 whole entry): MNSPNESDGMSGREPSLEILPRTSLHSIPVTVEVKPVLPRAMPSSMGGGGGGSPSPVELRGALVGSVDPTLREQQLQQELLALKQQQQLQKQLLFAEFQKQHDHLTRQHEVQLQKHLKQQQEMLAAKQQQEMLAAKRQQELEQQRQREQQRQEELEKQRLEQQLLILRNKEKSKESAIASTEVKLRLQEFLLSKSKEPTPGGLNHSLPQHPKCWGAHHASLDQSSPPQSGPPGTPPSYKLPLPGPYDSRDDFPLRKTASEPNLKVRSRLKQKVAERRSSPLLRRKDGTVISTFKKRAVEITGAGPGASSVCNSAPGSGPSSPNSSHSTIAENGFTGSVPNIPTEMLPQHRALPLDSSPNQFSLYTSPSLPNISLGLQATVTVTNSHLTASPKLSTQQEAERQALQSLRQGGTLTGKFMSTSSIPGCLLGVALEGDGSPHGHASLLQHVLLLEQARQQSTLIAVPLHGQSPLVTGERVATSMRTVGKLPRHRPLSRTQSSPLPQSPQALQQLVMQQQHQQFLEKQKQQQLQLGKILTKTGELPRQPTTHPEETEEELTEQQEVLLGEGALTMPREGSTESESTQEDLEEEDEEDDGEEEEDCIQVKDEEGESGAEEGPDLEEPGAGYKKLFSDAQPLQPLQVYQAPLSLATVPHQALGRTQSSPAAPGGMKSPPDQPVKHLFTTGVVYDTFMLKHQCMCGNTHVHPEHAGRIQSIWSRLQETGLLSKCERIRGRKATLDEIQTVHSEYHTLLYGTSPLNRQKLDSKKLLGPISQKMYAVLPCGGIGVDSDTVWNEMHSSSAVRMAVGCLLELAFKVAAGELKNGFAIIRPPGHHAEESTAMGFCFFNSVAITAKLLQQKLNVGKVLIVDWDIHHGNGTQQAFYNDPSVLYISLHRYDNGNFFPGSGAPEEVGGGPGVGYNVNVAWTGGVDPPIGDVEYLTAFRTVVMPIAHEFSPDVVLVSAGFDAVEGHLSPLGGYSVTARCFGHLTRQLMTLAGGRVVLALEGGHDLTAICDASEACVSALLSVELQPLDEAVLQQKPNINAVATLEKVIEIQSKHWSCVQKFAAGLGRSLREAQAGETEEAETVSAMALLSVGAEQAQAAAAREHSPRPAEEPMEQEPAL
Experimental: as §1, with “curves. TSA and SAHA were used as reference compounds.” for “curves.”

HDAC4 = HDAC4 (Homo sapiens, UniProt P56524)
Sequence of HDAC4 (P56524 whole entry): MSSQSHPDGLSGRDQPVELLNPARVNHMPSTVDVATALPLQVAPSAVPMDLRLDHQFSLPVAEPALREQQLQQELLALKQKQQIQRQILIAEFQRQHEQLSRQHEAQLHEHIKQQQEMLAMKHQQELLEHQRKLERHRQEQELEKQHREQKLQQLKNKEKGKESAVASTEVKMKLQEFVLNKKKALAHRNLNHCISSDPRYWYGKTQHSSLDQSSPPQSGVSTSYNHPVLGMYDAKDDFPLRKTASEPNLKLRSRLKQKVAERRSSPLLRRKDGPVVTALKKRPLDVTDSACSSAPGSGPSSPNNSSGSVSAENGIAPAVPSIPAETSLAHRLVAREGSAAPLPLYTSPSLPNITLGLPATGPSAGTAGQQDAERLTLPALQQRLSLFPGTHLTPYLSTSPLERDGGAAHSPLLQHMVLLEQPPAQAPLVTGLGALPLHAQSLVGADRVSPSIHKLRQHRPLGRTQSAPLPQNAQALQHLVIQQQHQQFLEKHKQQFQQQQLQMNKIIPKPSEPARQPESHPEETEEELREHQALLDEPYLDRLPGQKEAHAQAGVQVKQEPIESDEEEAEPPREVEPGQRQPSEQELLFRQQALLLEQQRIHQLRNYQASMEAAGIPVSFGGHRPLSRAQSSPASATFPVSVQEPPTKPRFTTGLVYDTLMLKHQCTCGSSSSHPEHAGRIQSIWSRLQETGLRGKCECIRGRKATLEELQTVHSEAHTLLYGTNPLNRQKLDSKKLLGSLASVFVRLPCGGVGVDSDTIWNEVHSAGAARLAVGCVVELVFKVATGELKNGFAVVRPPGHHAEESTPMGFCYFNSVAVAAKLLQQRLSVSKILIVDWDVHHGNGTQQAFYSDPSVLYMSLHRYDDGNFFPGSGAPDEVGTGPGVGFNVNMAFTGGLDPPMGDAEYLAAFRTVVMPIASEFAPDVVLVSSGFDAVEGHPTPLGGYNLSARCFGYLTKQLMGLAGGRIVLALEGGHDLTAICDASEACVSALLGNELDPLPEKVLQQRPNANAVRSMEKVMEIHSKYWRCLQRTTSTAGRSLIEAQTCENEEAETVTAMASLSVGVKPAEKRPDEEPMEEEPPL
Experimental: as §1, with “curves. TSA and SAHA were used as reference compounds.” for “curves.”

HDAC1 = HDAC1 (Homo sapiens, UniProt Q13547)
Sequence of HDAC1 (Q13547 whole entry): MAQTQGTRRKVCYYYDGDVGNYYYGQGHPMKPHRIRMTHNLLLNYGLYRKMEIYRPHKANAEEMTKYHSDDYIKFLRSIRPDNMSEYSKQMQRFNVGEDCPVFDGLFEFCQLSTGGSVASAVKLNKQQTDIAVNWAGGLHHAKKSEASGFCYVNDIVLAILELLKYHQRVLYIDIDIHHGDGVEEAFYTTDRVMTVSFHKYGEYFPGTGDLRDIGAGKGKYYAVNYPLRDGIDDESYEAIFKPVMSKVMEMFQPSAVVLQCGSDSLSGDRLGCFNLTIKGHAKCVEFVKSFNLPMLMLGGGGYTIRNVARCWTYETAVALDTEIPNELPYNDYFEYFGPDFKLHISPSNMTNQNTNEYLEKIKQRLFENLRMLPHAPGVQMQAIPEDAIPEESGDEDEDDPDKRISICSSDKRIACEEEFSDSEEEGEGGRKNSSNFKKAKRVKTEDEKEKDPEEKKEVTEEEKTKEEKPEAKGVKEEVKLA
Experimental: as §1, with “curves. TSA and SAHA were used as reference compounds.” for “curves.”

Sequence of HDAC9 (Q9UKV0 whole entry): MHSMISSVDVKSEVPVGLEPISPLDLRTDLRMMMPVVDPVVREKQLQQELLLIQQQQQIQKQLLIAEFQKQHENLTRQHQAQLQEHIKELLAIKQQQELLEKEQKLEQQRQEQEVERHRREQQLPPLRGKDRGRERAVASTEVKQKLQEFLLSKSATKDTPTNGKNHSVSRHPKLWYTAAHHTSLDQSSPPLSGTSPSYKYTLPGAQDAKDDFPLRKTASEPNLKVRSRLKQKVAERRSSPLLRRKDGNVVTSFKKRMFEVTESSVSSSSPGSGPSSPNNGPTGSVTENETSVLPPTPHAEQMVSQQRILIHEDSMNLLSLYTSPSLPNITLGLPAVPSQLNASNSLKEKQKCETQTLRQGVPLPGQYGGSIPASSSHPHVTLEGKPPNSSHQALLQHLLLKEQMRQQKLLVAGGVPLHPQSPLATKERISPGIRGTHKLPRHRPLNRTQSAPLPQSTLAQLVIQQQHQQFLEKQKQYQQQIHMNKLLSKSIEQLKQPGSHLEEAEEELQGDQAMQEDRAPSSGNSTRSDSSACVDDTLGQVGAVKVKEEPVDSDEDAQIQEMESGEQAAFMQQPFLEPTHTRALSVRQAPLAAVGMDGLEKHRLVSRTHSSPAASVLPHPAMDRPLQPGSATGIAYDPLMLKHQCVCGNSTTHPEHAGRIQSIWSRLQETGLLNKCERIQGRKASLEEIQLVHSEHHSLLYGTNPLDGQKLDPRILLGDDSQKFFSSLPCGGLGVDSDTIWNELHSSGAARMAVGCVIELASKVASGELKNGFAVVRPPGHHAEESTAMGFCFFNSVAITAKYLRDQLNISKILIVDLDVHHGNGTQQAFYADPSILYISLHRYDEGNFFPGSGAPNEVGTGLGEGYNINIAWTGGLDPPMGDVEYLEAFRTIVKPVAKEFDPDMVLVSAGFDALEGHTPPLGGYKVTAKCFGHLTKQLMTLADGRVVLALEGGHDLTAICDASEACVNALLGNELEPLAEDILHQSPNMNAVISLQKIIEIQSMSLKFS

Compound | IC50 (HDAC9) [nM] | IC50 (HDAC7) [nM] | IC50 (HDAC11) [nM] | IC50 (HDAC6) [nM] | IC50 (HDAC8) [nM] | IC50 (HDAC2) [nM] | IC50 (HDAC3) [nM] | IC50 (HDAC10) [nM] | IC50 (HDAC5) [nM] | IC50 (HDAC4) [nM] | IC50 (HDAC1) [nM]
COc1cc2cc(c1)C(=O)Nc1ccccc1NC(=O)[C@H](CCCCCC(=O)NO)OC/C=C\2 [Example 1, 6-((Z)—(S)-19-methoxy-2,11-dioxo-13-oxa-3,10-diaza-tricyclo[15.3.1.0*4,9*]henicosa-1(21),4,6,8,15,17,19-heptaen-12-yl)-hexanoic hydroxamic acid] | 2020 | 4300 | 948 | 59 | 534 | 3280 | 1110 | 2290 | 1660 | 5330 | 864
COc1cc2cc(c1)C(=O)Nc1ccccc1NC(=O)[C@@H](CCCCCC(=O)NO)OC/C=C\2 [Example 2, 6-((Z)—(R)-19-methoxy-2,11-dioxo-13-oxa-3,10-diaza-tricyclo[15.3.1.0*4,9*]henicosa-1(21),4,6,8,15,17,19-heptaen-12-yl)-hexanoic hydroxamic acid] | 1140 | 2070 | 1110 | 75 | 682 | 2530 | 885 | 1880 | 1340 | 3480 | 1340
(S)-2-(6,18-dioxo-5,6,7,9,10,11,12,13,18,19-decahydrobenzo[5,6][1,4,7]-oxadiazacyclo-tetradecino[10,9-b]indol-7-yl)-N-hydroxyacetamide [Example 3] | 602 | 2230 | 379 | 4.4 | 297 | 584 | 331 | 627 | 496 | 1690 | 245
